In ChEMBL document CHEMBL6115000, “Discovery of a first-in-class PROTAC degrader of histone lysine demethylase KDM4” (Eur J Med Chem, 2025):

Tests used:
[1] = target: T1, von Hippel-Lindau disease tumor suppressor/Lysine-specific demethylase 4A (Homo sapiens, UniProt O75164+P40337); assay: PROTAC activity at VHL/KDM4A in human KYSE-150 cells assessed as induction of KDM4A degradation at 0.1 uM incubated for 12 hrs by Western blot analysis relative to control; type: cell-based; settings: KYSE-150 cell line
T1 sequence (O75164 2-1064 limits assumed): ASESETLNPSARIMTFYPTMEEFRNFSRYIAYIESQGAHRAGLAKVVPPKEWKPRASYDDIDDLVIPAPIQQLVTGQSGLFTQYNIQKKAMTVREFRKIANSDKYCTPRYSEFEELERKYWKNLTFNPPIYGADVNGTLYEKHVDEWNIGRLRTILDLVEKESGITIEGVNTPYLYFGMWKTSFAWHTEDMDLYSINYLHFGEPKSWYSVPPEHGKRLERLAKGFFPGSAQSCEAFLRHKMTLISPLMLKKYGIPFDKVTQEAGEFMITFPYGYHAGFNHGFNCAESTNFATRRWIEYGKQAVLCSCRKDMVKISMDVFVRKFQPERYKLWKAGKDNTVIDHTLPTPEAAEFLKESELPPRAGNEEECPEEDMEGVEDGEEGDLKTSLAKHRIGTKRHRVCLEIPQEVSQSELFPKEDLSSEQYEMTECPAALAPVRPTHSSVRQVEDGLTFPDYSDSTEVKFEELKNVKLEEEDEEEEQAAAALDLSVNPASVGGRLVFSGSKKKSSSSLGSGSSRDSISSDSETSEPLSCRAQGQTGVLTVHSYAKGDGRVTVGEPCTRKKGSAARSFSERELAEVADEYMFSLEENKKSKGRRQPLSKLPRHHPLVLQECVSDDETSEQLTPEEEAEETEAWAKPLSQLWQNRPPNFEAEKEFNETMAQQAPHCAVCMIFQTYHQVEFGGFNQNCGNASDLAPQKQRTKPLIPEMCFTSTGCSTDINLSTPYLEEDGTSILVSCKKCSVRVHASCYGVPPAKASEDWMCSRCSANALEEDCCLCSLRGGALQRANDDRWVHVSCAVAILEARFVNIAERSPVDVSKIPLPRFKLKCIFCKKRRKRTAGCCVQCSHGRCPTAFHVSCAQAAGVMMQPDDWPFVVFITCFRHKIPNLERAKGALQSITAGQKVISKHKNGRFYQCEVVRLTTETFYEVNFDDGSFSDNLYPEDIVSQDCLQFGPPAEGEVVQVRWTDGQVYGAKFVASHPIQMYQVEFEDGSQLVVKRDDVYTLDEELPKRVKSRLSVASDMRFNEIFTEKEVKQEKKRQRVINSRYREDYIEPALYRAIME
T1 sequence (P40337 whole entry partner): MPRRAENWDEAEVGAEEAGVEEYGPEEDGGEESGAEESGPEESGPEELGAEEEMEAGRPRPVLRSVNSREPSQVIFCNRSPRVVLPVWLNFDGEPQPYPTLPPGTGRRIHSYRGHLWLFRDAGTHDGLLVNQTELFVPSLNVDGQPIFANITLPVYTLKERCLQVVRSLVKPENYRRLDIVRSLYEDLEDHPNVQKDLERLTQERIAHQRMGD

[2] = target: T1, von Hippel-Lindau disease tumor suppressor/Lysine-specific demethylase 4A; assay: PROTAC activity at VHL/KDM4A in human KYSE-150 cells assessed as induction of KDM4A degradation at 1 uM incubated for 12 hrs by Western blot analysis relative to control; type: cell-based; settings: KYSE-150 cell line

Row | Compound | Activity [1] | Activity [2]
1 | Cc1ncsc1-c1ccc([C@H](C)NC(=O)[C@@H]2C[C@@H](O)CN2C(=O)[C@@H](NC(=O)CCOCCOCCOCCOc2ccc(N(C)c3ccc4c(c3)OCC[C@H]4CNc3cnccc3C(=O)O)cc2)C(C)(C)C)cc1 | -2.5% | 15.5%
2 | Cc1ncsc1-c1ccc([C@H](C)NC(=O)[C@@H]2C[C@@H](O)CN2C(=O)[C@@H](NC(=O)c2ccc(CCCCCCOc3ccc(N(C)c4ccc5c(c4)OCC[C@H]5CNc4cnccc4C(=O)O)cc3)cc2)C(C)(C)C)cc1 | 52.4% | 54.5%
3 | Cc1ncsc1-c1ccc([C@H](C)NC(=O)[C@@H]2C[C@@H](O)CN2C(=O)[C@@H](NC(=O)c2ccc(CCCCCOc3ccc(N(C)c4ccc5c(c4)OCC[C@H]5CNc4cnccc4C(=O)O)cc3)cc2)C(C)(C)C)cc1 | 42.7% | 63.1%
4 | Cc1ncsc1-c1ccc([C@H](C)NC(=O)[C@@H]2C[C@@H](O)CN2C(=O)[C@@H](NC(=O)C2CCN(C(=O)CCCCCOc3ccc(N(C)c4ccc5c(c4)OCC[C@H]5CNc4cnccc4C(=O)O)cc3)CC2)C(C)(C)C)cc1 | 19.5% | 12%
5 | Cc1ncsc1-c1ccc([C@H](C)NC(=O)[C@@H]2C[C@@H](O)CN2C(=O)[C@@H](NC(=O)CCOCCOCCOc2ccc(N(C)c3ccc4c(c3)OCC[C@H]4CNc3cnccc3C(=O)O)cc2)C(C)(C)C)cc1 | 6.5% | 15.5%
6 | Cc1ncsc1-c1ccc([C@H](C)NC(=O)[C@@H]2C[C@@H](O)CN2C(=O)[C@@H](NC(=O)c2ccc(C#CCCCCOc3ccc(N(C)c4ccc5c(c4)OCC[C@H]5CNc4cnccc4C(=O)O)cc3)cc2)C(C)(C)C)cc1 | 38.7% | 47.3%
7 | Cc1ncsc1-c1ccc([C@H](C)NC(=O)[C@@H]2C[C@@H](O)CN2C(=O)[C@@H](NC(=O)c2ccc(CCCCOc3ccc(N(C)c4ccc5c(c4)OCC[C@H]5CNc4cnccc4C(=O)O)cc3)cc2)C(C)(C)C)cc1 | 30.5% | 43.9%

The next lines start with the values.

Row | Activity [1] | Activity [2] | Compound
8 | 48.5% | 57.9% | Cc1ncsc1-c1ccc([C@H](C)NC(=O)[C@@H]2C[C@@H](O)CN2C(=O)[C@@H](NC(=O)CCCCCCOc2ccc(N(C)c3ccc4c(c3)OCC[C@H]4CNc3cnccc3C(=O)O)cc2)C(C)(C)C)cc1
9 | 37.1% | 57.2% | Cc1ncsc1-c1ccc([C@H](C)NC(=O)[C@@H]2C[C@@H](O)CN2C(=O)[C@@H](NC(=O)CCCCCCCOc2ccc(N(C)c3ccc4c(c3)OCC[C@H]4CNc3cnccc3C(=O)O)cc2)C(C)(C)C)cc1
10 | 47.1% | 58.5% | Cc1ncsc1-c1ccc([C@H](C)NC(=O)[C@@H]2C[C@@H](O)CN2C(=O)[C@@H](NC(=O)CCCCCCCCCCCOc2ccc(N(C)c3ccc4c(c3)OCC[C@H]4CNc3cnccc3C(=O)O)cc2)C(C)(C)C)cc1
11 | 34.6% | 53.9% | Cc1ncsc1-c1ccc([C@H](C)NC(=O)[C@@H]2C[C@@H](O)CN2C(=O)[C@@H](NC(=O)CCCCCCCCOc2ccc(N(C)c3ccc4c(c3)OCC[C@H]4CNc3cnccc3C(=O)O)cc2)C(C)(C)C)cc1
12 | -0.2% | 41.1% | Cc1ncsc1-c1ccc([C@H](C)NC(=O)[C@@H]2C[C@@H](O)CN2C(=O)[C@@H](NC(=O)CCCCCCCOc2cccc(N(C)c3ccc4c(c3)OCC[C@H]4CNc3cnccc3C(=O)O)c2)C(C)(C)C)cc1
13 | 15.9% | 14.1% | Cc1ncsc1-c1ccc([C@H](C)NC(=O)[C@@H]2C[C@@H](O)CN2C(=O)[C@@H](NC(=O)CCCCCOc2ccc(N(C)c3ccc4c(c3)OCC[C@H]4CNc3cnccc3C(=O)O)cc2)C(C)(C)C)cc1
14 | 36.7% | 58.6% | Cc1ncsc1-c1ccc([C@H](C)NC(=O)[C@@H]2C[C@@H](O)CN2C(=O)[C@@H](NC(=O)CCCCCCCCCCOc2ccc(N(C)c3ccc4c(c3)OCC[C@H]4CNc3cnccc3C(=O)O)cc2)C(C)(C)C)cc1
